For test [1], the system named is 3D7 strain of Plasmodium falciparum. Briefly: In vitro activity against 3D7 strain of Plasmodium falciparum ([3H]-hypoxanthine incorporation assay). Particulars: Erythrocyte, 48 h, P. falciparum 3D7 in human erythrocytes, 2 d, growth inhibition, read-out: IC50: 1 Org. Growth P. falciparum 3D7, 2 d (LPS_00570). The format is cell-based. How it is done: In Vitro Activity Against Plasmodium falciparum a) Against 3D7 Strain of Plasmodium falciparum Inhibition of 3D7 strain parasites was assessed using the [^3H]-hypoxanthine incorporation assay (Desjardins, et al. Antimicrob. Agents Chemother. 1979, 16, 710-718). Briefly, parasites were cultured in human erythrocytes (from the Spanish Red Cross blood bank) using RPMI-1640 culture media (Gibco) supplemented with 0.5% Albumax II (Invitrogen), 2% D-sucrose (Sigma-Aldrich), 0.3% glutamine (Sigma-Aldrich), and 5 mM hypoxanthine (Sigma-Aldrich). Cultures were maintained at 37° C. at an atmosphere of 5% O2, 5% CO2, and […]. To assess inhibition, asynchronous parasite cultures with 0.5% parasitemia and 2% hematocrit were exposed to 3-fold serial dilutions of test compounds for 24 hours in 96 well plate cultures (Costar #3894). After 24 hours, [^3H]-hypoxanthine was added, plates were incubated for an additional 24 hours, and parasites were harvested on glass fiber filters (Wallac #1450-421) using a cell harvester 96 (TOMTEC, Perkin Elmer). Filters were dried on scintillator sheets (MeltiLex A, PerkinElmer #1450-441) to determine incorporation of [^3H]-hypoxanthine. Radioactivity was measured using a microbeta counter (Perkin Elmer). Data are normalized using the incorporation of the positive control (infected erythrocytes without drug). IC50 values were determined using Excel and Grafit 5 software. Values were determined from at least three independent experiments, and standard deviations were calculated.

Test [2] concerns W2 strain of Plasmodium falciparum. Briefly: In vitro activity against W2 strain of Plasmodium falciparum (YOYO-1 flow cytometry). The format is cell-based. Particulars: Erythrocyte, 48 h, P. falciparum W2 in human erythrocytes, 2 d, growth inhibition, read-out: IC50: 1 Org. Growth P. falciparum W2, 2 d (LPS_00451). The procedure: In Vitro Activity Against Plasmodium falciparum
b) Against W2 Strain of Plasmodium falciparum
W2 strain P. falciparum parasites were cultured in human erythrocytes and RPMI-1640 culture media with either 10% human serum or 0.5% Albumax serum substitute under 3% O2, 5% CO2, and 92% N2. Parasites synchronized to ring stage by treatments with 5% D-sorbitol were cultured with serial dilutions of benzoxaboroles from 5 to 10 mM stocks in 96 well microplate cultures including 200 μL of media/well, 2% hematocrit, and 1% parasitemia. At the completion of 48 h incubations, when untreated cultures contained new rings, parasites were fixed with 2% formaldehyde for 48 h, and 5 μL aliquots were transferred to another 96 well plate containing 150 μL/well of staining solution (100 mM NH4Cl, 0.1% Triton X-100, and 1 nM YOYO-1 in PBS). Parasites per erythrocyte were then determined by flow cytometry from plots of forward scatter against fluorescence (excitation 488 nm, emission 520 nm) using a FacSort flow cytometer (Beckton Dickinson) equipped with an AMS Loader (Cytek Development). All values were normalized to percent control activity, and IC50s were calculated using the Prism 3.0 program (GRAPHPAD Software). Goodness of fit was assessed by R^2 values, and meaningful dose-response curves yielded R^2 values >0.95.

Usually IC50 stands for the concentration that inhibits the measured activity by half.

On to `COCCNC(=O)c1cnc(Oc2ccc3c(c2C)B(O)OC3)cn1` [Example 2, 5-(1-hydroxy-7-methyl-1,3-dihydrobenzo[c][1,2]oxaborol-6-yloxy)-N-(2-methoxyethyl)pyrazine-2-carboxamide], for which the half-maximal inhibitory concentration (IC50) was found to be 644 nM in test [1] and 788 nM in test [2].
The like results for `Cc1c(Oc2cnc(C(=O)N[C@@H](CO)CCC(F)(F)F)cn2)ccc2c1B(O)OC2` [Example 37, (R)-5-(1-hydroxy-7-methyl-1,3-dihydrobenzo[c][1,2]oxaborol-6-yloxy)-N-(5,5,5-trifluoro-1-hydroxypentan-2-yl)pyrazine-2-carboxamide] were, in that order, 480 nM and 230 nM.
For the molecule `Cc1c(Oc2cnc(C(=O)N[C@H](CO)CC(F)(F)F)cn2)ccc2c1B(O)OC2` [Example 34, (S)-5-(1-hydroxy-7-methyl-1,3-dihydrobenzo[c][1,2]oxaborol-6-yloxy)-N-(4,4,4-trifluoro-1-hydroxybutan-2-yl)pyrazine-2-carboxamide], the concentration for half-maximal inhibition (IC50) in test [1] was determined as 452 nM; in test [2], 350 nM.
With `CCC1(O)CN(C(=O)c2cnc(Oc3ccc4c(c3C)B(O)OC4)cn2)C1` [Example 54, (3-ethyl-3-hydroxyazetidin-1-yl)(5-((1-hydroxy-7-methyl-1,3-dihydrobenzo[c][1,2]oxaborol-6-yl)oxy)pyrazin-2-yl)methanone], the values for the concentration for half-maximal inhibition (IC50) in test [1] and in test [2] were 87 nM and 28.9 nM, respectively.
The like results for `Cc1c(Oc2cnc(C(=O)NC(CO)CC(C)C)cn2)ccc2c1B(O)OC2` (stereo not drawn) [Example 8, N-(1-hydroxy-4-methylpentan-2-yl)-5-((1-hydroxy-7-methyl-1,3-dihydrobenzo[c][1,2]oxaborol-6-yl)oxy)pyrazine-2-carboxamide] were, in that order, 937 nM and 930 nM.
On to `Cc1c(Oc2cnc(C(=O)N3CC(O)(C(C)C)C3)cn2)ccc2c1B(O)OC2` [Example 57, (3-hydroxy-3-isopropylazetidin-1-yl) (5-((1-hydroxy-7-methyl-1,3-dihydrobenzo[c][1,2]oxaborol-6-yl)oxy)pyrazin-2-yl)methanone], for which the IC50 was determined as 369 nM in test [1] and 40.7 nM in test [2].
The like results for `Cc1c(Oc2cnc(C(=O)NCCO)cn2)ccc2c1B(O)OC2` [Example 1, 5-((1-hydroxy-7-methyl-1,3-dihydrobenzo[c][1,2]oxaborol-6-yl)oxy)-N-(2-hydroxyethyl)pyrazine-2-carboxamide] were, in that order, 1080 nM and 372 nM.
The like results for `Cc1c(Oc2cnc(C(=O)N3CCC(C)(O)C3)cn2)ccc2c1B(O)OC2` (racemic) [Example 40, (3-hydroxy-3-methylpyrrolidin-1-yl) (5-((1-hydroxy-7-methyl-1,3-dihydrobenzo[c][1,2]oxaborol-6-yl)oxy)pyrazin-2-yl)methanone] were, in that order, 314 nM and 139 nM.
The corresponding values for `Cc1c(Oc2cnc(C(=O)N[C@H](CO)C3CC3)cn2)ccc2c1B(O)OC2` [Example 31, (S)—N-(1-cyclopropyl-2-hydroxyethyl)-5-(1-hydroxy-7-methyl-1,3-dihydrobenzo[c][1,2]oxaborol-6-yloxy)pyrazine-2-carboxamide] are 1090 nM and 643 nM.
Regarding `Cc1c(Oc2cnc(C(=O)NC(C)CO)cn2)ccc2c1B(O)OC2` (stereo not drawn) [Example 5, 5-(1-hydroxy-7-methyl-1,3-dihydrobenzo[c][1,2]oxaborol-6-yloxy)-N-(1-hydroxypropan-2-yl)pyrazine-2-carboxamide], the concentration for half-maximal inhibition (IC50) in test [1] came to 317 nM; in test [2] it was 92.3 nM.
Take `Cc1c(Oc2cnc(C(=O)NC(CO)C3CC3)cn2)ccc2c1B(O)OC2` (stereo not drawn) [Example 22, N-(1-cyclopropyl-2-hydroxyethyl)-5-(1-hydroxy-7-methyl-1,3-dihydrobenzo[c][1,2]oxaborol-6-yloxy)pyrazine-2-carboxamide]: the IC50 in test [1] is 1150 nM; in test [2], 458 nM.
The like results for `Cc1c(Oc2cnc(C(=O)N[C@H](CO)C(C)C)cn2)ccc2c1B(O)OC2` [Example 23, (S)—N-(1-hydroxy-3-methylbutan-2-yl)-5-(1-hydroxy-7-methyl-1,3-dihydrobenzo[c][1,2]oxaborol-6-yloxy)pyrazine-2-carboxamide] were, in that order, 1990 nM and 774 nM.
Take `CC[C@@H](NC(=O)c1cnc(Oc2ccc3c(c2C)B(O)OC3)cn1)C(C)(C)O` [Example 45, (R)—N-(2-hydroxy-2-methylpentan-3-yl)-5-(1-hydroxy-7-methyl-1,3-dihydrobenzo[c][1,2]oxaborol-6-yloxy)pyrazine-2-carboxamide]: the IC50 in test [1] turned out to be 222 nM; in test [2] it was 91.8 nM.
The like results for `CC[C@@H](CO)NC(=O)c1cnc(Oc2ccc3c(c2C)B(O)OC3)cn1` [Example 21, (S)-5-(1-hydroxy-7-methyl-1,3-dihydrobenzo[c][1,2]oxaborol-6-yloxy)-N-(1-hydroxybutan-2-yl)pyrazine-2-carboxamide] were, in that order, 801 nM and 704 nM.
The corresponding values for `CC[C@H](CO)NC(=O)c1cnc(Oc2ccc3c(c2C)B(O)OC3)cn1` [Example 19, (R)-5-(1-hydroxy-7-methyl-1,3-dihydrobenzo[c][1,2]oxaborol-6-yloxy)-N-(1-hydroxybutan-2-yl)pyrazine-2-carboxamide] are 403 nM and 136 nM.

(Values after patent US10011616B2, “Boron-containing small molecules as antiprotozoal1 agents” (MMV MEDICINES FOR MALARIA VENTURE, priority 2015, dated 2018).)
